Measurements taken from patent US9645154B2, “Method for detecting cancer cell” (ARKRAY, Inc., priority 2010, dated 2017).

Key:
[1] = test system: human fibrosarcoma cell HT-1080; assay: Aminolevulinic acid labeling with or without iron ion and reducing agent (positive rate); assay type: cell-based; conditions: 0.3 mM, 37° C., 60 min
Text: (§1) In accordance with the conventional method, human fibrosarcoma cell HT-1080 (DS Pharma Biomedical Co., Ltd.) and normal human dermal fibroblast cell NHDF (Lonza) in culture were harvested with trypsin (Invitrogen). The cell suspension of the harvested cancer cells was centrifuged, and the supernatant was removed. The cells were then resuspended with Dulbecco's PBS (+) (Nissui Pharmaceutical Co., Ltd.) and centrifuged, and the supernatant was removed again.
The number of the cells was counted using a hemacytometer in accordance with the conventional method, and then 10^5 to 10^6 cells per sample (cell suspension) was aliquoted. The sample was centrifuged to remove the supernatant. In the case an iron ion and a reducing agent were added, 0.3 mM of aminolevulinic acid (trade name: 5-AMINOLEVULINATE HYDROCHLORIDE, Cosmo Bio Co., Ltd.), 0.3 mM of FeCl2 and 0.3 mM of ascorbic acid dissolved in Dulbecco's PBS (+) were added thereto, and the cells were suspended well. In the case an iron ion and a reducing agent were not added, 0.3 mM of aminolevulinic acid dissolved in Dulbecco's PBS (+) was added singly, and the cells were suspended well. Each of the mixture was then allowed to react at 37° C. for 60 minutes. […]
(§2) The fluorescence filter set: EX (excitation wavelength) 402±7.5, DM 430 or longer, BA (fluorescence wavelength) 625±15.

[2] = test system: normal human dermal fibroblast cell NHDF; assay: Aminolevulinic acid labeling with or without iron ion and reducing agent (degree of false-positive results); assay type: cell-based; conditions: 0.3 mM, 37° C., 60 min
Text: as §1
The number of the cells was counted using a hemacytometer in accordance with the conventional method, and then 10^5 to 10^6 cells per sample (cell suspension) was aliquoted. The sample was centrifuged to remove the supernatant. In the case an iron ion and a reducing agent were added, 0.3 mM of aminolevulinic acid (trade name: 5-AMINOLEVULINATE HYDROCHLORIDE, Cosmo Bio Co., Ltd.), 0.3 mM of FeCl2 and 0.3 mM of ascorbic acid dissolved in Dulbecco's PBS (+) were added thereto, and the cells were suspended well. In the case an iron ion and a reducing agent were not added, 0.3 mM of aminolevulinic acid dissolved in Dulbecco's PBS (+) was added singly, and the cells were suspended well. Each of the mixture was then allowed to react at 37° C. for 60 minutes. The number of cells was adjusted, and then the cells were added dropwise to a 384-well plate. The plate was centrifuged to spin down the cells.
as §2

[3] = test system: human prostate cancer cell line PC3; assay: Aminolevulinic acid (with FeCl2 and ascorbic acid at the same concentration) labeling, fluorescence microscopy image analysis (positive rate); assay type: cell-based
Text: In accordance with the conventional method, cultured human prostate cancer cell line PC3 (DS Pharma Biomedical Co., Ltd.) was harvested with trypsin (Invitrogen). The human gastric cancer cell line SNU-1 (ATCC), which is a suspension cell line, was directly harvested without any trypsin treatment. The cell suspension of the harvested cancer cells was centrifuged, and the supernatant was removed. The cells were resuspended with Dulbecco's PBS (+) (Nissui Pharmaceutical Co., Ltd.) and centrifuged, and the supernatant was removed again.
(§3) When performing the hemolyzing treatment, the collected blood cell fraction was hemolyzed using ammonium chloride (STEMCELL Technologies) at room temperature according to the manufacture's manuals.
(§4) The number of the cells was counted using a hemacytometer in accordance with the conventional method, and then 10^5 to 10^6 cells per sample (cell suspension) was aliquoted. The sample was centrifuged to remove the supernatant. Subsequently, aminolevulinic acid 5-AMINOLEVULINATE HYDROCHLORIDE (trade name, Cosmo Bio Co., Ltd., at the final concentration given in Table 7 or 8) dissolved in Dulbecco's PBS (+) and FeCl2 and ascorbic acid having the same concentration as that of aminolevulinic acid, respectively, were added thereto, and the cells were suspended well. The number of the cells was adjusted, and then the cells were added dropwise to a 384-well plate. The plate was centrifuged to spin down the cells. The image was captured with a fluorescence microscope (Nikon Corp.).
(§5) The wavelengths for the fluorescence filter set: EX (excitation wavelength): 402±7.5, DM: 430 or longer, BA (fluorescence wavelength): 625±15.
The acquired images were analyzed using an image analysis software NIS-ELEMENTS (trade name, Nikon Corp.) to evaluate the fluorescence intensity of the cell. […]

[4] = test system: Blood cells; assay: Aminolevulinic acid (with FeCl2 and ascorbic acid at the same concentration) labeling, fluorescence microscopy image analysis (false-positive/negative rate); assay type: cell-based, human
Text: Blood was collected from a human subject using a vacuum blood collection tube (with EDTA•2K). Blood cells were separated using HetaSep (STEMCELL Technologies) in accordance with manufacturer's instructions.
as §3, §4, §5
The acquired images were analyzed using an image analysis software NIS-ELEMENTS (trade name, Nikon Corp.) to evaluate the fluorescence intensity of the cell.

[5] = Ascorbic acid 0.3 mM, FeC12 0.3 mM
[6] = hemolyzed, 0.1 mM, 37° C., 60 min
[7] = hemolyzed, 0.3 mM, 37° C., 60 min (concentration series)
[8] = hemolyzed, 1 mM, 37° C., 60 min
[9] = hemolyzed, 4° C., 0.3 mM, 60 min
[10] = hemolyzed, 23° C., 0.3 mM, 60 min
[11] = hemolyzed, 37° C., 0.3 mM, 60 min (temperature series)
[12] = hemolyzed, 30 min, 0.3 mM, 37° C.
[13] = hemolyzed, 60 min, 0.3 mM, 37° C. (time series)
[14] = hemolyzed, 120 min, 0.3 mM, 37° C.
[15] = without hemolyzing treatment, 0.1 mM, 37° C., 60 min
[16] = without hemolyzing treatment, 0.3 mM, 37° C., 60 min (concentration series)
[17] = without hemolyzing treatment, 1 mM, 37° C., 60 min
[18] = without hemolyzing treatment, 4° C., 0.3 mM, 60 min
[19] = without hemolyzing treatment, 23° C., 0.3 mM, 60 min
[20] = without hemolyzing treatment, 37° C., 0.3 mM, 60 min (temperature series)
[21] = without hemolyzing treatment, 30 min, 0.3 mM, 37° C.
[22] = without hemolyzing treatment, 60 min, 0.3 mM, 37° C. (time series)
[23] = without hemolyzing treatment, 120 min, 0.3 mM, 37° C.
[24] = hemolyzed, 0.3 mM, 60 min, 37° C., threshold value 198 (Gastric cancer)
[25] = hemolyzed, 0.3 mM, 60 min, 37° C., threshold value 203 (Fibrosarcoma)
[26] = hemolyzed, 0.3 mM, 60 min, 37° C., threshold value 207 (Colon adenocarcinoma)
[27] = hemolyzed, 0.3 mM, 60 min, 37° C., threshold value 212 (Alveolar epithelial cancer)
[28] = hemolyzed, 0.3 mM, 60 min, 37° C., threshold value 265 (Prostate cancer)
[29] = hemolyzed, 0.3 mM, 60 min, 37° C., threshold value 268 (Breast adenocarcinoma)

SMILES: NCC(=O)CCC(=O)O [aminolevulinic acid, 5-amino-4-oxopentanoic acid]
- Positive rate (Fibroblast sarcoma cell (HT-1080)) ([1]; Ascorbic acid 0, FeC12 0): 97.3%
- Positive rate (Fibroblast sarcoma cell (HT-1080)) [1, 5]: 79.3%
- Negative rate (Normal epithelial cells (NHDF)) ([2]; Ascorbic acid 0, FeC12 0): 37.7%
- Positive rate (Normal epithelial cells (NHDF)) ([2]; Ascorbic acid 0, FeC12 0): 62.3%
- Negative rate (Normal epithelial cells (NHDF)) [2, 5]: 85.7%
- Positive rate (Normal epithelial cells (NHDF)) [2, 5]: 14.3%
- Positive rate (Cancer cells) ([3]; Prostate cancer, hemolyzed, 0.3 mM, 60 min, 37° C., threshold value 265): 92.7%
- Positive rate (PC3 cells) [3, 6]: 44%
- Positive rate (PC3 cells) [3, 7]: 85%
- Positive rate (PC3 cells) [3, 8]: 88%
- Positive rate (PC3 cells) [3, 9]: 31%
- Positive rate (PC3 cells) [3, 10]: 54%
- Positive rate (PC3 cells) [3, 11]: 80%
- Positive rate (PC3 cells) [3, 12]: 59%
- Positive rate (PC3 cells) [3, 13]: 93%
- Positive rate (PC3 cells) [3, 14]: 92%
- Positive rate (PC3 cells) [3, 15]: 54%
- Positive rate (PC3 cells) [3, 16]: 88%
- Positive rate (PC3 cells) [3, 17]: 94%
- Positive rate (PC3 cells) [3, 18]: 13%
- Positive rate (PC3 cells) [3, 19]: 18%
- Positive rate (PC3 cells) [3, 20]: 83%
- Positive rate (PC3 cells) [3, 21]: 80%
- Positive rate (PC3 cells) [3, 22]: 81%
- Positive rate (PC3 cells) [3, 23]: 84%
- Negative rate (Blood cells (fresh blood)) [4, 24]: 95.2%
- Positive rate (Blood cells (fresh blood)) [4, 24]: 4.8%
- Negative rate (Blood cells (fresh blood)) [4, 25]: 95.2%
- Positive rate (Blood cells (fresh blood)) [4, 25]: 4.8%
- Negative rate (Blood cells (fresh blood)) [4, 26]: 95.2%
- Positive rate (Blood cells (fresh blood)) [4, 26]: 4.8%
- Negative rate (Blood cells (fresh blood)) [4, 27]: 95.2%
- Positive rate (Blood cells (fresh blood)) [4, 27]: 4.8%
- Negative rate (Blood cells (fresh blood)) [4, 28]: 95.2%
- Positive rate (Blood cells (fresh blood)) [4, 28]: 4.8%
- Negative rate (Blood cells (fresh blood)) [4, 29]: 95.6%
- Positive rate (Blood cells (fresh blood)) [4, 29]: 4.4%
- Negative rate (Blood cells) [4, 6]: 98%
- Positive rate (Blood cells) [4, 6]: 2%
- Negative rate (Blood cells) [4, 7]: 93%
- Positive rate (Blood cells) [4, 7]: 7%
- Negative rate (Blood cells) [4, 8]: 87%
- Positive rate (Blood cells) [4, 8]: 13%
- Negative rate (Blood cells) [4, 9]: 98%
- Positive rate (Blood cells) [4, 9]: 2%
- Negative rate (Blood cells) [4, 10]: 98%
- Positive rate (Blood cells) [4, 10]: 2%
- Negative rate (Blood cells) [4, 11]: 88%
- Positive rate (Blood cells) [4, 11]: 12%
- Negative rate (Blood cells) [4, 12]: 98%
- Positive rate (Blood cells) [4, 12]: 2%
- Negative rate (Blood cells) [4, 13]: 100%
- Positive rate (Blood cells) [4, 13]: 0%
- Negative rate (Blood cells) [4, 14]: 94%
- Positive rate (Blood cells) [4, 14]: 6%
- Negative rate (Blood cells) [4, 15]: 98%
- Positive rate (Blood cells) [4, 15]: 2%
- Negative rate (Blood cells) [4, 16]: 99%
- Positive rate (Blood cells) [4, 16]: 1%
- Negative rate (Blood cells) [4, 17]: 93%
- Positive rate (Blood cells) [4, 17]: 7%
- Negative rate (Blood cells) [4, 18]: 98%
- Positive rate (Blood cells) [4, 18]: 2%
- Negative rate (Blood cells) [4, 19]: 100%
- Positive rate (Blood cells) [4, 19]: 0%
- Negative rate (Blood cells) [4, 20]: 100%
- Positive rate (Blood cells) [4, 20]: 0%
- Negative rate (Blood cells) [4, 21]: 98%
- Positive rate (Blood cells) [4, 21]: 2%
- Negative rate (Blood cells) [4, 22]: 99%
- Positive rate (Blood cells) [4, 22]: 1%
- Negative rate (Blood cells) [4, 23]: 86%
- Positive rate (Blood cells) [4, 23]: 14%
